Results published in patent US8580816B2, “Carboxylic acid derivatives having an oxazolo[5,4-b]pyridine ring” (Sanofi, priority 2011, dated 2013).

These compounds were tested against T1, human Edg 1 receptor (Homo sapiens, UniProt P21453) (assay: GTP-γ-S assay using human Edg 1 receptors (scintillation proximity assay, CHO Flp-In membrane preparation)). Conditions: test compound at 10 μM; relative to high control 10 μM S1P = 100% activation; membranes of CHO Flp-In cells overexpressing human Edg 1; triplicate.
T1 construct: FLAG (N); expressed in transfected cells
Type: biochemical
Text: A) GTP-γ-S Assay Using Human Edg 1 Receptors
In order to determine the Edg 1 receptor activation by the compounds of the invention, a GTP-γ-S ((GTP-γ-S=guanosine 5′-[thio]triphosphate) assay for G-protein coupled receptor binding based on the scintillation proximity assay principle was used, employing a cell membrane preparation from a CHO Flp-In cell line which constitutively overexpresses the human Edg 1 receptor.
A membrane preparation was obtained by standard methods from the afore-described CHO Flp-In cell line constitutively overexpressing the human Edg 1 receptor. Briefly, the cryopreserved cells were taken in culture and grown until confluency in T175 cell culture flasks (Becton Dickinson, cat. no. 35 5001). Cell culture was stopped by washing with calcium-free phosphate-buffered saline (PBS; Gibco, cat. no. 14190), and cells were harvested with a rubber-policeman in 4° C. cold and calcium-free PBS supplemented with a protease inhibitor cocktail (complete protease inhibitor; Roche, cat. no. 1697498; 1 tablet per 50 ml) and subsequently centrifuged at 4° C. for 15 min at 1100×g (Heraeus Minifuge T). For cell lysis, the pellet was resuspended in a 4° C. cold hypotonic buffer consisting of 5 mM HEPES (Sigma-Aldrich, cat. no. H-0981), 1 mM EDTA (disodium salt; Merck, cat. No. 8418) supplemented with protease inhibitor cocktail (as above) in which cells were stored for another 15 min on ice. After lysis, cells were centrifuged at 4° C. for 10 min at 400×g (Heraeus Minifuge T). The pellet was disrupted in a Dounce homogenizer, diluted with the supernatant of the previous centrifugation and subsequently centrifuged at 4° C. for 10 min at 500×g (Heraeus Minifuge T) in order to separate nuclei and still intact cells from the membranes mainly present in the supernatant. The supernatant was then diluted in hypotonic buffer and centrifuged (Beckmann, Avanti J251) at approximately 18 600×g for 2 h at 4° C. After centrifugation, the membrane pellet was resuspended in a storing buffer consisting of 20 mM HEPES; 150 mM NaCl (Merck, cat. no. 6400), 1 mM EDTA (as above) supplemented with protease inhibitor cocktail (as above). […] Protein concentration of the membrane preparation was determined in a sample by means of a commercial protein assay (Bio-Rad, DC Protein Assay, cat. nos. 500-0113, 500-0114, 500-0115).
The Edg 1 membrane preparation obtained in (b) was employed in a commercially available scintillation proximity assay (SPA) kit for G-protein coupled receptor binding from Amersham Biosciences/GE Healthcare (code RPNQ0210), in which ligand-induced binding of ^35S-radiolabeled GTP-γ-S to the receptor-containing membrane, which is bound to scintillation beads, stimulates the emission of light and allows to quantify the in vitro activity of the Edg 1 agonistic compound. […]

T1 sequence (P21453 whole entry): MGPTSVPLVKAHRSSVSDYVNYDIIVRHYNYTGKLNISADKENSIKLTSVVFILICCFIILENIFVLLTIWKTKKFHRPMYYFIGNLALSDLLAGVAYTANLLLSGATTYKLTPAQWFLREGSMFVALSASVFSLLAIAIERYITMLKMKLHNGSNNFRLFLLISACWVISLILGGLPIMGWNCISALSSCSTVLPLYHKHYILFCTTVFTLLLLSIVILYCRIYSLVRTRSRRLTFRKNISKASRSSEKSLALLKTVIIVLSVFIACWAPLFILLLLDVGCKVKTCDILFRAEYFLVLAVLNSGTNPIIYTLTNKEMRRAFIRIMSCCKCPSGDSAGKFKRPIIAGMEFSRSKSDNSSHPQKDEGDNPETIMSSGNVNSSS

Row | Edg 1 receptor activation in percent of the activation by 10 μM S1P (% activation) [%] | SMILES
1 | 74 | Cc1cc(-c2nc3ccc(Oc4ccccc4F)nc3o2)cc(C)c1OCC(=O)O [Example 1, {4-[5-(2-Fluorophenoxy)oxazolo[5,4-b]pyridin-2-yl]-2,6-dimethylphenoxy}acetic acid]
2 | 39 | Cc1cc(-c2nc3ccc(Oc4ccccc4F)nc3o2)cc(C)c1OC(C)(C)C(=O)O [Example 3, 2-{4-[5-(2-Fluorophenoxy)oxazolo[5,4-b]pyridin-2-yl]-2,6-dimethylphenoxy}-2-methylpropionic acid]
3 | 86 | Cc1cc(-c2nc3ccc(Oc4ccccc4F)nc3o2)cc(C)c1OCC(C)(C)C(=O)O [Example 4, 3-{4-[5-(2-Fluorophenoxy)oxazolo[5,4-b]pyridin-2-yl]-2,6-dimethylphenoxy}-2,2-dimethylpropionic acid]
4 | 51 | Cc1cc(-c2nc3ccc(Oc4ccccc4F)nc3o2)cc(C)c1OC(C)C(=O)O (stereo not shown) [Example 2, 2-{4-[5-(2-Fluorophenoxy)oxazolo[5,4-b]pyridin-2-yl]-2,6-dimethylphenoxy}propionic acid]
